The values below come from ChEMBL document CHEMBL1157539, “Thousands of chemical starting points for antimalarial lead identification” (Nature, 2010).

This assay concerns Plasmodium falciparum. The assay is described as follows: GSK_TCMDC: Inhibition of Plasmodium falciparum 3D7 in whole erythrocytes, using parasite LDH activity as an index of growth. As to conditions: Plasmodium falciparum, 3D7. The assay is classed as functional, organism-based.

As to `CCCC(C)Nc1nc(C)cc(N[C@@H](Cc2ccccc2)C(=O)Nc2ccc(OC)cc2)n1` (stereo partly specified), the XC50 turned out to be 1120 nM. The compound `CCN(CC)CCN(CCCc1ccc(-c2ccc(C(F)(F)F)cc2)cc1)C(=O)Cn1c(CCc2cccc(F)c2F)nc(=O)c2ccccc21` gave an XC50 of 767 nM. The result for `CCOc1cccc(C(=O)Nc2cccc(CN3CCCN(Cc4ccc(O)cc4)CC3)c2)c1` reads 824 nM; that for `CC(CCCCCC(=O)Nc1ccc(CC(C)NCCc2cccc(Cl)c2)cc1)NCCc1cccc(Cl)c1` (stereo unspecified), 948 nM. The result for `Cc1ccccc1C1CCN(C2CCC(NC(=O)c3ccc(-c4cccc(C(F)(F)F)c4)o3)CC2)CC1` (stereo unspecified) reads 346 nM; that for `O=c1cc(N2CCNCC2)c(Cl)nn1Cc1ccc(NS(=O)(=O)c2ccc(Oc3ccccc3)cc2)cc1`, 574 nM; that for `COc1ccc2nccc([C@@H](O)CN3CCC(NCCOc4ccccc4C#N)CC3)c2c1`, 398 nM. `O=C(c1ccc([N+](=O)[O-])o1)N1CCN(c2nc3c(F)cc(F)cc3s2)CC1` had an XC50 of 974 nM. The compound `CS(=O)(=O)CCNCc1ccc(-c2cc3c(Nc4ccc(OCc5cccc(F)c5)c(Cl)c4)ncnc3s2)[nH]1` displayed an XC50 of 844 nM. `CN1CCN(c2ccnc3cc4c(cc23)N(C(=O)Nc2ccc3c(c2)CCCC3=O)CC4)CC1` registered an XC50 of 623 nM. With `Cc1ccc(-c2nc3cc(NC(=O)c4ccc([N+](=O)[O-])o4)ccc3o2)cc1Cl`, the XC50 amounted to 160 nM. As to `O=C(Nc1ccc(C(F)(F)F)cc1)c1ccc(S(=O)(=O)NC2CCCN(CC3CCCCC3)C2)cc1` (stereo unspecified), the XC50 amounted to 718 nM.

On to `CN1CCC(N2CCN(Cc3ccc(-c4cccc(-c5nc6cc(F)ccc6[nH]5)c4)cc3)CC2)CC1`, for which the XC50 turned out to be 173 nM. `Cc1ccccc1OCC(=O)Nc1ccc(-c2nc3cc4ccccc4cc3[nH]2)cc1` registered an XC50 of 753 nM.

As for `Cc1cccc2nc(-c3cccc(-c4ccc(NC(=O)Nc5cccc(C#N)c5)cc4)c3)[nH]c12`, the XC50 was found to be 187 nM.

For `O=C(Nc1cncc(NC(=O)c2ccc(Cl)c(Cl)c2)c1)c1ccc(Cl)c(Cl)c1`, the XC50 was 730 nM. For `CN1CCN(c2cccc(NC(=O)c3ccc(-c4ccc(C#N)cc4)cc3)c2)CC1`, the XC50 is 1260 nM. `FC(F)(F)Oc1ccc(Nc2cc(-c3ccncc3)nc(-c3cccnc3)n2)cc1` came in with an XC50 of 672 nM.

`COc1cc2nc(-c3ccccc3)nc(N3CCN(CC(=O)N4CCCC4)CC3)c2cc1OC` returned an XC50 of 1130 nM. Regarding `Cc1ccccc1C1CCN(C2CCC(NC(=O)c3ccc(-c4cccs4)s3)CC2)CC1` (stereo unspecified), the XC50 came out at 1030 nM.

The compound `O=C(/C=C/c1ccc(Cl)c(Cl)c1)N1CCC(CCCN2CCC(c3c[nH]c4ccccc34)CC2)CC1` registered an XC50 of 707 nM. Take `Cc1c(CNCCCNc2nc3ccccc3[nH]2)[nH]c2cc(Cl)cc(Cl)c12`: the XC50 amounted to 232 nM.

On to `O=C(NCCCc1ccccc1)c1ccc(O)c(-c2cc(Cl)cc(Cl)c2)c1`, for which the XC50 was 567 nM.

On to `N#CC1(CCCNCCc2ccc(O)cc2)CCCc2c(O)cccc21` (stereo unspecified), for which the XC50 was 763 nM.

In the case of `CN(C)CCCOc1cccc(NC(=O)Nc2ccc(-c3ccccc3)cc2)c1`, the XC50 was determined as 868 nM.

In the case of `CCn1c(-c2nonc2N)nc2c(-c3cccc(NC(=O)Nc4ccccc4OC)c3)ncc(OCCCN)c21`, the XC50 is 1000 nM. Under `CCc1c(CCNCCCCCCNCCc2ccccc2)ccc(OC)c1OC` stands 800 nM; under `Oc1c(CN2CCC(Cc3ccccc3)CC2)cc(Cl)c2cccnc12`, 881 nM; under `CC(C)NCC(=O)Nc1cccc(C(=O)Nc2cccc(C(F)(F)F)c2)c1`, 273 nM. In the case of `N=C(N)c1ccc(OCc2cccc(COc3ccc(C(=N)N)cc3I)c2)c(I)c1`, the XC50 turned out to be 337 nM. Consider `CN(C)c1ccc(NC(=O)Nc2ccnc3ccc(Br)cc23)cc1`, for which the XC50 worked out at 872 nM. With `O=C(NC1CC1)c1ccc(N2CCC(COc3cccc(F)c3)CC2)nc1`, the XC50 was found to be 1240 nM. Under `CN1CCC(Oc2cc(NC(=O)Nc3ccc(-c4ccncc4)c(Cl)c3)ccc2Cl)CC1` stands 530 nM; under `CC1CN(c2ccc(NC(=O)c3cccs3)cc2)CCN1Cc1cccc(F)c1` (stereo unspecified), 492 nM; under `O=C(/C=C/c1ccc(CNCCN2CCOCC2)cc1)NCCc1ccccc1`, 864 nM. Compound `O=C(Nc1ccc([N+](=O)[O-])cc1Br)c1cc2ccccc2nc1Cl` yielded an XC50 of 185 nM. Turning to `COc1ccc(CNC2Cc3ccccc3C2)cc1-c1ccc(OC)c(S(=O)(=O)NCCN2CCCC2)c1`, the XC50 was 773 nM. With `Cc1cc(NC(=O)c2coc3cc(F)c(N4CC(C)N(C)C(C)C4)cc23)ccc1-n1ccnc1` (stereo unspecified), the XC50 was determined as 841 nM.

Compound `Cc1cccc2nc(-c3cccc(-c4cccc(CN5CCN(c6ccncc6)CC5)c4)c3)[nH]c12` came in with an XC50 of 200 nM.

For the compound `Cc1[nH]n(-c2cccc(C(F)(F)F)c2)c(=O)c1-c1ccc(Cl)cc1`, the XC50 stood at 856 nM. The result for `CN(c1ccc(NC(=O)Nc2cc(C(F)(F)F)ccc2F)cc1)c1ccnc(NCCN2CCCC2)n1` reads 1150 nM; that for `c1ccc(CNCc2cccc(-c3csc(-c4nc5ccccc5[nH]4)c3)c2)cc1`, 456 nM; that for `CCCN(CCC)CCCNc1ccc(C(=O)Nc2ccc(OCC)cc2)cc1[N+](=O)[O-]`, 992 nM.

In turn, `COc1ccccc1/C=C/C(=O)N(C)C1CCN(CCCCCNC(=O)/C=C/c2ccc(Cl)c(Cl)c2)CC1` registered an XC50 of 438 nM.

In turn, `CN(C)c1ccc(CN2CCC(NC(=O)c3ccc(-c4ccc(N(C)C)cc4)s3)CC2)cc1` displayed an XC50 of 1070 nM. Compound `CN1CCCN(Cc2cccc(-c3cccc(NC(=O)c4cccc(C#N)c4)c3)c2)CC1` yielded an XC50 of 818 nM. In the case of `C=C[C@H]1CN2CC[C@H]1C[C@@H]2[C@@H](O)c1ccnc2ccc(OC)cc12` [QUINIDINE], the XC50 came to 118 nM. The result for `O=C(NC1CC1)C1CCN(Cc2cc3ccccc3n2Cc2ccc(Cl)cc2)CC1` reads 489 nM; that for `CN(C)C(CNC(=O)c1cc(-c2ccncc2)c(-c2ccc(NC(=O)Nc3ccccc3)cc2)o1)c1ccccc1` (stereo unspecified), 603 nM; that for `Fc1ccc2[nH]c(-c3ccc(-c4ccc(CNCc5ccccc5)cc4)cc3)nc2c1`, 284 nM. `Cc1ccc(-c2ccc3c(c2)C=C(C(=O)NC2CCN(CCNC(=O)c4cccs4)CC2)CCC3)cc1` returned an XC50 of 227 nM. `CC(C)(C)OC(=O)NCc1ccc(Nc2nnc(-c3cccc(C(=O)NCc4cc(C(F)(F)F)cc(C(F)(F)F)c4)c3)o2)cc1` registered an XC50 of 865 nM. In turn, `N#Cc1ccc2c(c1)CN(C1CCC(NC(=O)c3cc(-c4ccc(Cl)cc4)cs3)CC1)CCC2` (stereo unspecified) had an XC50 of 956 nM. Regarding `CN1CCN(CC(O)CNC(=O)Nc2ccc(Cl)cc2)CC1` (stereo unspecified), the XC50 worked out at 230 nM. In turn, `Cc1nnc(N2C(=N)SC(=Cc3ccc(-c4ccc(OC(F)(F)F)cc4)o3)C2=O)s1` displayed an XC50 of 526 nM. Under `Cc1nc(C)c(-c2ccc(Oc3ccc([S+](C)[O-])cc3)cc2)c(O)c1Br` (stereo unspecified) stands 765 nM.

`CCC[C@@H]([C@@H](CC(C)C)C(=O)N[C@@H](CCCCNC(=O)c1ccccn1)C(=O)Nc1nccs1)N(O)C=O` displayed an XC50 of 46.6 nM. `CCOc1ccc2c(=NN=Cc3c4ccccc4cc4ccccc34)cc(C)[nH]c2c1` had an XC50 of 1070 nM. Regarding `c1ccc(CN2CCN(CCNc3c4ccccc4nc4ccccc34)CC2)cc1`, the XC50 is 876 nM. The compound `CC(C)c1ccc(O)cc1Nc1ccnc2ccc(C(F)(F)F)cc12` had an XC50 of 675 nM. Consider `CC(C)C(=O)NC(c1ccc(Cl)cc1)c1ccc2cccnc2c1O` (stereo unspecified), for which the XC50 is 873 nM.

Regarding `C(=Cc1nc2ccccc2s1)c1ccc2c(c1)OCCO2`, the XC50 turned out to be 393 nM. Turning to `Cc1cccc2nc(-c3ccc(-c4ccc(CNCCCN5CCCC5=O)cc4)s3)[nH]c12`, the XC50 amounted to 749 nM. Consider `c1ccc(COc2ccc(Nc3ncnc4cnc(-c5ccc(CN6CCCCC6)o5)cc34)cc2)cc1`, for which the XC50 is 967 nM. In the case of `CN1CCN(c2ccc(-c3nc4ccc(OCc5cc(Cl)cc(Cl)c5)c(C(N)=O)c4[nH]3)cc2)CC1`, the XC50 turned out to be 657 nM. `Cc1cc(O)c(-c2cccc(Oc3ccc(Cl)cc3)c2)c(C)n1` yielded an XC50 of 736 nM. For the compound `CN(C)CCOC(=O)C1(O)CCC2CC1C2(C)C` (stereo unspecified), the XC50 is 984 nM.

For `O=C(NCCN1CCOCC1)c1csc(C2CCCN(C(=O)c3ccc(O)c(-c4cc(Cl)cc(Cl)c4)c3)C2)n1` (stereo unspecified), the XC50 is 1030 nM. Compound `Oc1c(Cl)cc(-c2ccccc2)cc1CNC1CCCCC1` had an XC50 of 749 nM. The compound `Cc1sc2nc(CSc3ccccc3)nc(N3CCN(CC(=O)N4CCCC4)CC3)c2c1C` came in with an XC50 of 1260 nM. The compound `CCn1ncc2c(N3CCCC3=O)cc(C(=O)N[C@@H](Cc3ccccc3)[C@H](O)CNC(C)(C)c3cccc(OC)c3)cc21` registered an XC50 of 107 nM. As for `CN1CCCc2ccc(NC(=O)c3ccc(-c4cc(C(F)(F)F)nn4C)s3)cc2C1`, the XC50 came out at 880 nM. Take `Nc1c2c(nc3ccc(NC(=O)CCCc4ccccc4)cc13)CCCC2`: the XC50 was 429 nM. Compound `COc1ccccc1-c1ccc2nnc(SCC(=O)Nc3ccc4c(c3)OCCO4)n2n1` yielded an XC50 of 716 nM. The compound `CCCn1c(Sc2ccc(C#N)c([N+](=O)[O-])c2)nnc1-c1cc(OC)cc(OC)c1` came in with an XC50 of 718 nM. Regarding `O=C(Cc1ccccc1)NC(CCN1CCC(N(C2CC2)S(=O)(=O)c2cccc(C(F)(F)F)c2)CC1)c1ccc(Cl)c(Cl)c1` (stereo unspecified), the XC50 worked out at 1270 nM. `Cc1cccc2nc(-c3ccc(-c4cccc(CNCCCNS(C)(=O)=O)c4)cc3)[nH]c12` displayed an XC50 of 1220 nM. In turn, `CCCC(C)N(Cc1ccc(C(C)(C)C)cc1)C(=O)c1cccc(OC)c1` (stereo unspecified) showed an XC50 of 336 nM. The compound `Cc1onc(-c2c(Cl)cccc2Cl)c1C(=O)NC1=NC(C)(C)ON1c1ccccc1` displayed an XC50 of 1070 nM. On to `CN(C)CCOc1cc(NC(=O)Nc2cccc3c(-c4ccncc4)cccc23)ccc1I`, for which the XC50 is 734 nM. As to `Cc1cccc(N2C(N)=NC(N)=NC2(C)C)c1C`, the XC50 is 759 nM. In turn, `Nc1nc(N)c2c(Sc3ccc(F)cc3)cccc2n1` displayed an XC50 of 1070 nM. For `COc1ccc(Nc2nccc(-c3c(-c4cccc(NC(=O)c5c(F)cccc5F)c4)nn4ccccc34)n2)cc1Cl`, the XC50 came out at 284 nM. `FC(F)(F)c1ccc2c(C=Cc3ccncc3)c[nH]c2c1` displayed an XC50 of 707 nM. As for `CCNc1cc(C(=O)N[C@@H](Cc2ccccc2)[C@H](O)CN[C@@H](C)c2cccc(OC)c2)cc(N2CCCC2=O)c1`, the XC50 is 769 nM. The result for `CN(c1ccc(NC(=O)c2ccc(F)cc2)cc1)C1CCN(Cc2cccc(F)c2)C1` (stereo unspecified) reads 1410 nM.
